# According to article PMC11823630, “In vitro potentiation of tetracyclines in Pseudomonas aeruginosa by RW01, a new cyclic peptide” (Antimicrobial Agents and Chemotherapy, 2024):
# Tests used:
# [1] = test system: PAO1 mutant MIN1_RW01_1, pmrB(Y98N); assay: MIC, Sensititre custom plate; assay type: cell-based; conditions: Pseudomonas aeruginosa, PAO1, read-out: MIC, Sensititre
# Method: (§1) Selection of resistant mutants was performed for minocycline with and without RW01 in three independent replicates for wild-type P. aeruginosa reference strain PAO1. Tubes containing Mueller-Hinton broth (MHB) were inoculated and incubated for 24 h at 37°C. Afterward, 1/100 dilution of each tube was incubated at 37°C in MHB to late-exponential growth phase, measured by spectrophotometry at OD600. […] A control plate without antibiotic was included as inoculum control. After overnight incubation, colony counting of each treatment was performed to analyze the generation of resistant population. The mutant prevention concentration (MPC) was defined as the lowest concentration of antibiotic yielding no growth of resistant mutants. Selected mutants were checked for susceptibility profiles by using a Sensititre custom plate (Thermo Fisher Scientific, Massachusetts, USA) for Gram-negative bacteria, following the manufacturer’s instructions.
# [2] = test system: PAO1 mutant MIN16_1, nalD(T43P); assay: MIC, Sensititre custom plate; assay type: cell-based; conditions: Pseudomonas aeruginosa, PAO1, read-out: MIC, Sensititre
# Method: as §1
# [3] = test system: PAO1 mutant MIN4_RW01_3, pmrB(M292T); assay: MIC, Sensititre custom plate; assay type: cell-based; conditions: Pseudomonas aeruginosa, PAO1, read-out: MIC, Sensititre
# Method: as §1
# [4] = test system: PAO1 mutant MIN2_RW01_2, pmrB(M292T); assay: MIC, Sensititre custom plate; assay type: cell-based; conditions: Pseudomonas aeruginosa, PAO1, read-out: MIC, Sensititre
# Method: as §1
# [5] = test system: PAO1 mutant MIN8_1, nalD(R3C), pilM(Q62X); assay: MIC, Sensititre custom plate; assay type: cell-based; conditions: Pseudomonas aeruginosa, PAO1, read-out: MIC, Sensititre
# Method: as §1
# [6] = test system: PAO1 mutant MIN16_4, nalC(T50P), pilM(Q62X); assay: MIC, Sensititre custom plate; assay type: cell-based; conditions: Pseudomonas aeruginosa, PAO1, read-out: MIC, Sensititre
# Method: as §1
# [7] = test system: PAO1 mutant MIN1_RW01_3, pmrB(V215L); assay: MIC, Sensititre custom plate; assay type: cell-based; conditions: Pseudomonas aeruginosa, PAO1, read-out: MIC, Sensititre
# Method: as §1
# [8] = test system: PAO1 mutant MIN16_2, nalC(aa9∆4), pilQ(nt46∆1); assay: MIC, Sensititre custom plate; assay type: cell-based; conditions: Pseudomonas aeruginosa, PAO1, read-out: MIC, Sensititre
# Method: as §1
# [9] = test system: PAO1 mutant MIN4_RW01_4, pmrB(Y98N); assay: MIC, Sensititre custom plate; assay type: cell-based; conditions: Pseudomonas aeruginosa, PAO1, read-out: MIC, Sensititre
# Method: as §1
# [10] = test system: PAO1 mutant MIN2_RW01_1, pmrB(V215L); assay: MIC, Sensititre custom plate; assay type: cell-based; conditions: Pseudomonas aeruginosa, PAO1, read-out: MIC, Sensititre
# Method: as §1
# [11] = test system: PAO1 mutant MIN1_RW01_2, mexR(G58E), pilB(G326D), hutC(Y181X); assay: MIC, Sensititre custom plate; assay type: cell-based; conditions: Pseudomonas aeruginosa, PAO1, read-out: MIC, Sensititre
# Method: as §1
# [12] = test system: PAO1 mutant MIN8_3, pilZ(nt18InsT); assay: MIC, Sensititre custom plate; assay type: cell-based; conditions: Pseudomonas aeruginosa, PAO1, read-out: MIC, Sensititre
# Method: as §1
# [13] = test system: PAO1 mutant MIN8_4, pilZ(nt18InsT); assay: MIC, Sensititre custom plate; assay type: cell-based; conditions: Pseudomonas aeruginosa, PAO1, read-out: MIC, Sensititre
# Method: as §1
# [14] = test system: PAO1 mutant MIN2_RW01_4, pmrB(M292T); assay: MIC, Sensititre custom plate; assay type: cell-based; conditions: Pseudomonas aeruginosa, PAO1, read-out: MIC, Sensititre
# Method: as §1
# [15] = test system: PAO1 mutant MIN4_RW01_1, pmrB(R429H); assay: MIC, Sensititre custom plate; assay type: cell-based; conditions: Pseudomonas aeruginosa, PAO1, read-out: MIC, Sensititre
# Method: as §1
# [16] = test system: PAO1 mutant MIN8_2, pilZ(nt18InsT); assay: MIC, Sensititre custom plate; assay type: cell-based; conditions: Pseudomonas aeruginosa, PAO1, read-out: MIC, Sensititre
# Method: as §1
# P. aeruginosa PAO1, WT = assay: MIC, Sensititre custom plate; assay type: cell-based; conditions: Pseudomonas aeruginosa, PAO1, read-out: MIC, Sensititre
# Method: as §1
# [17] = test system: PAO1 mutant MIN16_3, nfxB(nt79∆14), pilB(N349K); assay: MIC, Sensititre custom plate; assay type: cell-based; conditions: Pseudomonas aeruginosa, PAO1, read-out: MIC, Sensititre
# Method: as §1
# [18] = test system: PAO1 mutant MIN32_1, mexR(R63H), pilB(N349K), PA0646(V316G); assay: MIC, Sensititre custom plate; assay type: cell-based; conditions: Pseudomonas aeruginosa, PAO1, read-out: MIC, Sensititre
# Method: as §1
# [19] = test system: PAO1 mutant MIN2_RW01_3, parS(V152A); assay: MIC, Sensititre custom plate; assay type: cell-based; conditions: Pseudomonas aeruginosa, PAO1, read-out: MIC, Sensititre
# Method: as §1
# [20] = test system: PAO1 mutant MIN1_RW01_4, pmrB(F124L); assay: microbe, parasite or virus in culture; assay type: cell-based; conditions: Pseudomonas aeruginosa, PAO1, read-out: MIC, Sensititre
# Method: as §1
# [21] = test system: PAO1 mutant MIN4_RW01_2, pmrB(F124S); assay: microbe, parasite or virus in culture; assay type: cell-based; conditions: Pseudomonas aeruginosa, PAO1, read-out: MIC, Sensititre
# Method: as §1
# P. aeruginosa 125B = assay: MIC, CLSI broth microdilution in BD Phoenix AST Broth; assay type: cell-based, Pseudomonas aeruginosa; conditions: Pseudomonas aeruginosa; strain 125B; agent alone; 37°C, 18–22 h; three biological replicates
# Method: (§2) MIC for RW01 was also tested.
# (§3) FIC of RW01 (FICRW01)=MIC of RW01 in combination/MIC of RW01 alone,FIC of antibiotic (FICATB)=MIC of ATB in combination/MIC of ATB alone,FICI=FICRW01 +FICATB.
# (§4) FICI was interpreted as follows: synergistic effect if FICI is ≤0.5; additive effect if 0.5 < FICI ≤ 1.0; indifferent effect if 1.0 < FICI ≤ 2.0; and finally, antagonistic effect if FICI is >2.0. The average FICI considering the antibiotic MIC (no growth in any of the replicates) at different concentrations of RW01 was calculated ([28]).
# P. aeruginosa PAOΔmexZ = assay: as above; assay type: cell-based, Pseudomonas aeruginosa; conditions: Pseudomonas aeruginosa, strain PAOΔmexZ; agent alone; 37°C, 18–22 h; three biological replicates
# Method: as §2, §3, §4
# P. aeruginosa PAOUW∆oprF = assay: as above; assay type: cell-based, Pseudomonas aeruginosa; conditions: Pseudomonas aeruginosa, strain PAOUWΔoprF; agent alone; 37°C, 18–22 h; three biological replicates
# Method: as §2, §3, §4
# P. aeruginosa PAOΔoprM = assay: as above; assay type: cell-based, Pseudomonas aeruginosa; conditions: Pseudomonas aeruginosa
# Method: as §2, §3, §4
# P. aeruginosa 41A = assay: as above; assay type: cell-based, Pseudomonas aeruginosa; conditions: Pseudomonas aeruginosa; strain 41A; agent alone; 37°C, 18–22 h; three biological replicates
# Method: as §2, §3, §4
# P. aeruginosa PAO1 = assay: as above; assay type: cell-based, Pseudomonas aeruginosa; conditions: Pseudomonas aeruginosa, PAO1, strain PAO1; agent alone; 37°C, 18–22 h; three biological replicates; read-out: MIC
# Method: as §2, §3, §4
# P. aeruginosa PAOUW = assay: as above; assay type: cell-based, Pseudomonas aeruginosa; conditions: Pseudomonas aeruginosa, strain PAOUW; agent alone; 37°C, 18–22 h; three biological replicates; read-out: MIC
# Method: as §2, §3, §4
# P. aeruginosa PAOΔmexR = assay: as above; assay type: cell-based, Pseudomonas aeruginosa; conditions: Pseudomonas aeruginosa
# Method: as §2, §3, §4
# P. aeruginosa 125A = assay: as above; assay type: cell-based, Pseudomonas aeruginosa; conditions: Pseudomonas aeruginosa; strain 125A; agent alone; 37°C, 18–22 h; three biological replicates
# Method: as §2, §3, §4
# P. aeruginosa 41B = assay: as above; assay type: cell-based, Pseudomonas aeruginosa; conditions: Pseudomonas aeruginosa; strain 41B; agent alone; 37°C, 18–22 h; three biological replicates
# Method: as §2, §3, §4
SMILES,MIC [1] [µg/mL],MIC [2] [µg/mL],MIC [3] [µg/mL],MIC [4] [µg/mL],MIC [5] [µg/mL],MIC [6] [µg/mL],MIC [7] [µg/mL],MIC [8] [µg/mL],MIC [9] [µg/mL],MIC [10] [µg/mL],MIC [11] [µg/mL],MIC [12] [µg/mL],MIC [13] [µg/mL],MIC [14] [µg/mL],MIC [15] [µg/mL],MIC [16] [µg/mL],"MIC (P. aeruginosa PAO1, WT) [µg/mL]",MIC [17] [µg/mL],MIC [18] [µg/mL],MIC [19] [µg/mL],further results
"CC(C)(O/N=C(\C(=O)N[C@@H]1C(=O)N2C(C(=O)[O-])=C(C[n+]3ccccc3)CS[C@H]12)c1csc(N)n1)C(=O)O [Ceftazidime, ceftazidime]",≤ 1,4,≤ 1,2,4,4,≤ 1,4,≤ 1,2,4,4,4,2,4,4,1 to 2,2,4,2,MIC [20]: 2 µg/mL; MIC [21]: ≤ 1 µg/mL; MIC (P. aeruginosa 125B): 4 µg/mL; MIC (P. aeruginosa PAOΔmexZ): 4 µg/mL; MIC (P. aeruginosa PAOUW∆oprF): 2 µg/mL; MIC (P. aeruginosa PAOΔoprM): 2 µg/mL; MIC (P. aeruginosa 41A): 4 µg/mL; MIC (P. aeruginosa PAO1): 2 µg/mL; MIC (P. aeruginosa PAOUW): 2 µg/mL; MIC (P. aeruginosa PAOΔmexR): 4 µg/mL; MIC (P. aeruginosa 125A): 8 µg/mL; MIC (P. aeruginosa 41B): 8 µg/mL
"C[C@@H](O)[C@H]1C(=O)N2C(C(=O)O)=C(SCCN=CN)C[C@H]12 [Imipenem, imipenem]",2,2 to 4,16,2,2,2,2,2,4,4,1,2,2,2,2 to 4,2,1 to 2,1,2,8,MIC [20]: 2 µg/mL; MIC [21]: 2 µg/mL; MIC (P. aeruginosa 125B): 2 µg/mL; MIC (P. aeruginosa PAOΔmexZ): 2 µg/mL; MIC (P. aeruginosa PAOUW∆oprF): 2 µg/mL; MIC (P. aeruginosa PAOΔoprM): 2 µg/mL; MIC (P. aeruginosa 41A): 2 µg/mL; MIC (P. aeruginosa PAO1): 2 µg/mL; MIC (P. aeruginosa PAOUW): 8 µg/mL; MIC (P. aeruginosa PAOΔmexR): 0.5 µg/mL; MIC (P. aeruginosa 125A): 2 µg/mL; MIC (P. aeruginosa 41B): 16 µg/mL
"C[C@@H](O)[C@H]1C(=O)N2C(C(=O)O)=C(S[C@@H]3CN[C@H](C(=O)N(C)C)C3)[C@H](C)[C@H]12 [Meropenem, meropenem]",1,4,2,1,2,2,1,2,1,1,4,2,2,1,4,2,1 to 2,≤ 0.5,4,2 to 4,MIC [20]: 1 µg/mL; MIC [21]: ≤ 0.5 µg/mL; MIC (P. aeruginosa 125B): 0.5 µg/mL; MIC (P. aeruginosa PAOΔmexZ): 0.5 µg/mL; MIC (P. aeruginosa PAOUW∆oprF): 2 µg/mL; MIC (P. aeruginosa PAOΔoprM): 0.125 µg/mL; MIC (P. aeruginosa 41A): 4 µg/mL; MIC (P. aeruginosa PAO1): 0.5 µg/mL; MIC (P. aeruginosa PAOUW): 1 µg/mL; MIC (P. aeruginosa PAOΔmexR): 1 µg/mL; MIC (P. aeruginosa 125A): 0.5 µg/mL; MIC (P. aeruginosa 41B): 16 µg/mL
"NC[C@H]1O[C@H](O[C@H]2[C@H](O)[C@@H](O[C@H]3O[C@H](CO)[C@@H](O)[C@H](N)[C@H]3O)[C@H](N)C[C@@H]2N)[C@H](N)C[C@@H]1O [TOB, tobramycin]",1,0.5,0.5,0.5,0.5,≤ 0.25,1,≤ 0.25,1,0.5,≤ 0.25,≤ 0.25,0.5,0.5,0.5,0.5,0.25 to 0.5,≤ 0.25,0.25 to 0.5,1,MIC [20]: ≤ 0.25 µg/mL; MIC [21]: 0.5 µg/mL
